Converted amounts (≈) assume the structure as drawn. “And” between values parts separate entries of the source, which are not always exact repeats. Equal entries are not always repeated.
How the values were obtained:
[1] = system: Monkey; details: duration: 13 weeks, oral, flavoured beverage, F, Cynomolgus, Estrogenic effects on maturation of vaginal epithelial cells
[2] = system: Rattus norvegicus; details: for LC50 / LD50: acute
[3] = system: Oryctolagus sp.; details: for LD50: acute
[4] = system: Cavia porcellus; details: acute; Inhalation
[5] = system: Rattus norvegicus; details: inhalation, M/F
[6] = system: Oryctolagus sp.; details: subchronic; inhalation; M/F; sedation
[7] = system: Rattus norvegicus
[8] = system: Canidae; details: chronic, oral, M/F, Dog Other
[9] = system: Canidae; details: chronic, oral, Dog Other
[10] = system: Rattus norvegicus; assay: LD0; higher = less toxic; details: acute; dermal; semiocclusive; Sprague-Dawley
[11] = system: Oryctolagus sp.; assay: LD0; higher = less toxic; details: acute; dermal; semiocclusive; New Zealand
[12] = system: Rattus norvegicus; assay: LC100; higher = less toxic; details: acute; inhalation; Wistar
[13] = system: Mus musculus; details: acute; oral; CD1
[14] = system: Mus musculus; details: subchronic; duration: 13 weeks; oral; gavage; M/F; CD1; hepatic
[15] = system: Mus musculus; details: subchronic; oral; M/F; no effects
[16] = system: Mus musculus; details: subchronic; duration: 90 days; oral; gavage; M/F; CD-10 (ICR) BR; Whole Body Effects
[17] = system: Rattus norvegicus; details: subchronic; duration: 90 days; oral; drinking water; M/F; Fischer 344; renal
[18] = system: Homo sapiens; details: clinical; duration: 10 weeks; oral; drinking water; Cardiovascular system: Increased blood pressure
[19] = system: Homo sapiens; details: clinical; Induction of resistant enterobacteriaceae
[20] = system: Homo sapiens; details: clinical, duration: 14 days, oral, M, hematological
[21] = system: Homo sapiens; details: clinical; duration: 2 weeks; oral; Endocrine
[22] = reproduction developmental, duration: 19 days, oral, gavage, Sprague-Dawley
[23] = short-term, inhalation, M, Sprague-Dawley
[24] = short-term, inhalation, New Zealand
[25] = duration: 12 months, diet, increased relative liver weight in male dogs
[26] = short-term, duration: 8 days, oral, gavage, Sprague-Dawley

CC1CCCC(O)CCCCCc2cc(O)cc(O)c2C(=O)O1 (stereo unspecified)
NOEL [1]: 0.05 mg/kg-day | NOEL ([1]; subchronic): 0.05 mg/kg-day

CC(C)(N=C=O)c1cccc(C(C)(C)N=C=O)c1 [1,3-Bis(2-isocyanato-2-propyl)benzene]
LC50 ([2]; inhalation, Sprague-Dawley): 0.027 µg/mL (≈ 0.111 µM) | LD50 ([2]; oral, gavage, Sprague-Dawley): > 5000 mg/kg | LOAEL [2, 22]: 250 mg/kg-day | NOAEL [2, 22]: 150 mg/kg-day | NOAEL ([2]; reproduction developmental, duration: 19 days, oral, gavage, Sprague-Dawley, generation: F0): 150 mg/kg-day | NOAEL ([2]; reproduction developmental, duration: 19 days, oral, gavage, Sprague-Dawley, generation: F1): 250 mg/kg-day | NOAEL ([2]; reproduction developmental, oral, gavage, F, Sprague-Dawley): 150 mg/kg-day | NOAEL ([2]; reproduction developmental, oral, gavage, Sprague-Dawley, generation: F1): 250 mg/kg-day | NOAEL ([2]; short-term, duration: 4 weeks, Inhalation, Sprague-Dawley): 1.5 mg/m3 | LD50 ([3]; dermal, occlusive, New Zealand): > 2000 mg/kg | LC50 [4]: 0.24 µg/mL (≈ 0.982 µM)

COCC(C)O (stereo unspecified) [1-Methoxy-2-propanol]
LOAEL ([5]; subchronic, sedation): 11100 mg/m3 | NOAEL ([5]; subchronic, sedation): 3680 mg/m3 | LOAEL [6]: 11100 mg/m3 | NOAEL [6]: 3680 mg/m3 | NOEL ([7]; subchronic, duration: 35 days, oral, gavage, Kidney: Histopathology + Liver: Histopathology): 947 mg/kg-day

CC(Oc1cc(Cl)c(Cl)cc1Cl)C(=O)O (stereo unspecified) [2-(2,4,5-Trichlorophenoxy)propionic acid]
LOAEL ([8]; histopathological liver): 2.5 mg/kg-day | NOEL ([8]; histopathological liver): 0.75 mg/kg-day | NOEL ([9]; duration: 2 years, diet, Liver: Histopathology): 0.75 mg/kg-day

O=[N+]([O-])C(CO)(CO)CO [2-(Hydroxymethyl)-2-nitro-1,3-propanediol]
LD0 [10]: > 5000 mg/kg | LD0 [11]: > 2000 mg/kg | LC50 ([2]; Inhalation, Sprague-Dawley): 2.4 µg/mL (≈ 15.9 µM) | LC50 ([2]; inhalation, particle, Sprague-Dawley): > 2.12 µg/mL | LD50 ([2]; oral, gavage): ≥ 990 mg/kg and ≤ 1000 mg/kg

CC(C)[N+](=O)[O-] [2-Nitropropane]
LC100 [12]: 53600 mg/m3 | LC50 ([2]; inhalation, Sprague-Dawley): 2620 mg/m3 and 1460 mg/m3 | LC50 ([2]; inhalation, Wistar): ≥ 12.1 µg/mL and ≤ 14.4 µg/mL | NOAEL ([2]; developmental, duration: 15 days, injection, Intraperitoneal, Sprague-Dawley): < 170 mg/kg-day | NOAEL ([2]; reproduction developmental, duration: 15 days, injection, Intraperitoneal, F, Sprague-Dawley): 170 mg/kg-day | LOAEL [2, 23]: 754 mg/m3 | NOAEL [2, 23]: 98.4 mg/m3 | LD50 [13]: 393 mg/kg and ≥ 346 mg/kg and ≤ 446 mg/kg | LD50 ([3]; dermal): > 200 mg/kg | LD50 ([3]; dermal, New Zealand): > 2000 mg/kg | LD50 ([3]; oral, gavage): ≥ 500 mg/kg and ≤ 750 mg/kg | LOAEL [3, 24]: 754 mg/m3 | NOAEL [3, 24]: 98.4 mg/m3 | LOAEL ([5]; chronic, liver focal vacuolization and nodules): 78 mg/m3 | LOAEL ([7]; chronic, duration: 22 months, inhalation, intermittent, Liver: Lesions): 78 mg/m3

c1ccc2cc3ccccc3cc2c1 [Anthracene]
NOAEL [14]: 1000 mg/kg-day | NOEL [15]: 1000 mg/kg-day | NOEL [16]: 1000 mg/kg-day

[Ba] [Barium]
NOAEL [17]: 65 mg/kg-day | NOEL ([7]; developmental, duration: 4 months, inhalation, intermittent, Fetus: Fetotoxicity): 0.8 mg/m3 | NOAEL [18]: 0.21 mg/kg-day

CCSC(=O)N(CC(C)C)CC(C)C [Butylate]
LOAEL [8, 25]: 25 mg/kg-day | NOAEL [8, 25]: 5 mg/kg-day | NOEL ([9]; duration: 12 months, capsule, Liver: Increased relative weight): 5 mg/kg-day

CN(C)[C@@H]1C(=O)C(C(N)=O)=C(O)[C@@]2(O)C(=O)C3=C(O)c4c(O)ccc(Cl)c4[C@@](C)(O)[C@H]3C[C@@H]12 [Chlortetracycline]
LOEL [19]: 20 mg/day | NOEL [19]: 2 mg/day

[Co] [Cobalt]
LOAEL [20]: 1 mg/kg-day | NOAEL ([20]; capsule): 0.8 mg/kg-day | LOAEL [21]: 1 mg/kg-day

CC(C)C(C)(C)C(C)(C)C(C)(C)SSSSSC(C)(C)C(C)(C)C(C)(C)C(C)C [Di-tert-Dodecyl pentasulfide]
LD0 [10]: ≥ 2000 mg/kg | NOAEL ([2]; developmental, duration: 6 days, oral, gavage, Sprague-Dawley): 1000 mg/kg-day | NOAEL ([2]; reproduction developmental, duration: 6 days, oral, gavage, F, Sprague-Dawley): 1000 mg/kg-day | LOAEL [2, 26]: 2500 mg/kg-day | NOAEL [2, 26]: 1250 mg/kg-day | NOAEL ([2]; short-term, duration: 28 days, oral, gavage, Sprague-Dawley): 1000 mg/kg-day

— EPA's ToxValDB 9.5
